Read-outs that look alike come from different tables or passages of the source.
Columns and labels:
trypsin = target: T1, trypsin (Bos taurus, UniProt P00760); assay: Inhibition of trypsin; type: biochemical
T1 sequence (P00760 24-246): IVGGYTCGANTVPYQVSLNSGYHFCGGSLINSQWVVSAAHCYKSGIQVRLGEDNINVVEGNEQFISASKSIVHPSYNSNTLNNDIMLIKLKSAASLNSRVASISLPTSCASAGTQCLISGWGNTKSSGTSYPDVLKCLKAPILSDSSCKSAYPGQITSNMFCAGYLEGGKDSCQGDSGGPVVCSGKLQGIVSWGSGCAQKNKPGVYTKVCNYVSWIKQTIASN

kallicrein = assay: Activity of DABF-AmB on various proteases: kallicrein; type: biochemical; details: 1 μM, results not shown
Method: (§1) DABF-AmB was tested, at a concentration of 1 μM, on various proteases (papain, chymotrypsin, kallicrein, leucocyte elastase, cathopsin D and recombinant protease p10) under conditions and in the presence of substrates appropriate for each of the proteases tested.

leucocyte elastase = assay: Activity of DABF-AmB on various proteases: leucocyte elastase; type: biochemical; details: 1 μM
Method: as §1

cathopsin D = assay: Activity of DABF-AmB on various proteases: cathopsin D; type: biochemical; details: 1 μM
Method: as §1

Jurkat cells = assay: Cell viability of Jurkat cells; type: cell-based, human; details: concentrations above 100 μM
Source text: Cell viability was estimated at the same time. […] It therefore appears that DABF-AmB inhibits the replication of HIV at doses which are not cytotoxic.

LTR of HIV = assay: Early phases of HIV infection: transactivation of LTR-LacZ in CD4 HeLa cells (blue colonies); type: cell-based, HIV-1; details: 10 μM, 24 hours after infection
Method: HeLa cells transfected with the CD4 gene and capable of being infected by HIV, carrying the bacterial gene LacZ placed under the control of the LTR of HIV ROCANCOURT et al., J. Virol., 64:2660-2668, (1990)!, were infected with HIV-1BRU. […] This detection was carried out after fixing the cells by incubating for one hour in-the presence of 5-bromo-4-chloro-3-indoyl-β-D-[…] and enzyme substrate.

HIV2-rod = assay: Formation of syncytia in HUT78 cells infected with HIV2-rod; type: cell-based, HIV-2
Method: HUT78 cells were inoculated in 96-well plates in an amount of 2×10^4 cells per well, in […]. They were infected with various viral concentrations and DABF-AmB was added immediately after the infection, at various concentrations. The formation of syncytia was evaluated after 3 and 5 days by direct reading under an inverted microscope (semi-quantitative test).

AZT-resistant strains = assay: Infection of PBMCs by AZT-resistant HIV-1; type: cell-based; details: 10 μM, RT activity after 10 days
Method: PBMCs were infected under the conditions described above in the general procedures, with various HIV-1 isolates derived from patients, or identified as resistant to AZT. The anti-viral effect of DABF-AmB was determined by measuring the RT activity in the supernatants after 10 days of culture.

HIV (cellular viraemia) = assay: Cellular viraemia of AIDS patients' lymphocytes (p24 in supernatants); type: cell-based
Method: Lymphocytes from AIDS patients (<200CD4) are isolated on a Ficoll gradient using heparinised blood. The cells are taken up in RPMI 1640 medium containing antibiotics, 10 U/ml of recombinant IL2 (Boeringher) and anti-interferon alpha serum (anti-IFNα, Sigma) plus 10% of foetal calf serum. The cells are cultured in 24-well plates in an amount of 5×10^5 cells per well for the first concentration and then subjected to 5 fold serial dilutions in the same medium. Half of the medium is replaced twice weekly. Every week, 3×10^5 fresh allogeneic PBMCs, derived from healthy donors, are added to the cultures. The cultures are kept for 28 days in the presence of varying concentrations of DABF-AmB. Vital production is measured weekly by assaying the protein p24 in the supernatants. Each culture and each assay are carried out in duplicate.
The symbols (-) denote that the amount of p24 detected is at least 95% less than the values obtained in the untreated control cultures. […] The results obtained in the LOU patient indicates either a resistance of the virus to the product, or a too high initial viral content. These experiments made it possible to evaluate the IC50 for DABF-AmB at between 1 and 5 μM for the different viral isolates (IC50=Concentrationof the product inhibiting 50% of the p24 titer in the culture supernatants, for a patient cells dilution corresponding to a viral content equivalent to 10TCID50.

HIV = assay: Viral expression in reactivated infected CD4 cells from patients (p24 ELISA); type: cell-based; details: Human immunodeficiency virus 1, 240 h, 7 patients tested
Source text: The activation of infected CD4+cells is known to stimulate the production of the virus. The effect of DABF-AmB was therefore tested on the vital expression in cells from AIDS patients reactivated in vitro by anti-CD3, by anti-CD28, by PMA (phorbol myristate acetate) or by soluble anti-CD3.
PBMCs from patients (<300 CD4) were isolated on a Ficoll gradient using blood. The CD4 cells were isolated by cell sorting using a flow cytometer (FACS-Star, Becton-Dickinson, Mountain View, Calif.) after OKT4-FITC labelling. The CD4 cells were washed again and then re-inoculated as indicated in 5 and activated either with anti-CD3 or anti-CD28 antibodies or with PMA. Viral expression was evaluated after 10 days by ELISA assay of p24 in the supernatants.

Compound: C[C@@H]1[C@H](O)[C@@H](C)/C=C/C=C/C=C/C=C/C=C/C=C/C=C/[C@H](O[C@@H]2O[C@H](C)[C@@H](O)[C@H](NCC(=O)[C@@H](O)[C@@H]3OC(c4ccccc4)OC[C@H]3O)[C@@H]2O)C[C@@H]2O[C@](O)(C[C@@H](O)C[C@@H](O)[C@H](O)CC[C@@H](O)C[C@@H](O)CC(=O)O[C@H]1C)C[C@H](O)[C@H]2C(=O)O (stereo partly drawn) [DABF-AmB, 1-deoxy-1-amino-4,6-O-benzylidene-D-fructosyl-AmB]
- inhibition at 1 µM (trypsin; 1 μM, FIG. 1, read-out: % inhibition of trypsin relative to a control without inhibitor): > 60%
- inhibition at 100 µM (trypsin; 10^-4 M): 100%
- inhibition of trypsin (in words) (trypsin; 10^-4 M): Total inhibition
- inhibition at 10 µM (trypsin; 10^-5 M): 95%
- inhibition at 1 µM (trypsin; 10^-6 M, read-out: % of inhibition of trypsin): 50%
- inhibition at 0.1 µM (trypsin; 10^-7 M): 20%
- inhibition of kallicrein (kallicrein): inhibits
- inhibition of leucocyte elastase (leucocyte elastase): inhibits
- inhibition of cathopsin D (cathopsin D): does not inhibit
- cytotoxic effect (Jurkat cells): no cytotoxic effect
- inhibition of appearance of blue colonies (LTR of HIV): completely inhibits
- formation of syncytia (HIV2-rod; 5 μM, 10 TCID50, 3 days): - and +
- formation of syncytia (HIV2-rod; 5 μM, 10 TCID50, 5 days): - and +
- formation of syncytia (HIV2-rod; 5 μM, 100 TCID50, 3 days): +
- formation of syncytia (HIV2-rod; 10 μM, 10 TCID50, 3 days): -
- formation of syncytia (HIV2-rod; 10 μM, 10 TCID50, 5 days): -
- formation of syncytia (HIV2-rod; 10 μM, 100 TCID50, 3 days): + and -
- formation of syncytia (HIV2-rod; 50 μM, 10 TCID50, 5 days): -
- formation of syncytia (HIV2-rod; 50 μM, 100 TCID50, 3 days): -
- formation of syncytia (HIV2-rod; 50 μM, 100 TCID50, 5 days): -
- formation of syncytia (HIV2-rod; 100 μM, 100 TCID50, 3 days): -
- formation of syncytia (HIV2-rod; 100 μM, 100 TCID50, 5 days): -
- inhibition of formation of syncytia (in words) (HIV2-rod; HUT78, HIV-2): in a dose-dependent manner
- inhibition of infection of PBMC (AZT-resistant strains): this inhibition is also produced in the case of AZT-resistant strains
- number of patients in which cellular viraemia is inhibited (HIV (cellular viraemia); 8 different patients): 7 out of 8
- IC50 (HIV (cellular viraemia); Human immunodeficiency virus 1, Lymphocyte, read-out: IC50 (concentration inhibiting 50% of the p24 titer in the culture supernatants)): 1000 to 5000 nM
- cellular viraemia (p24) (HIV (cellular viraemia); patient SAM + MS, day 0): - (the amount of p24 detected is at least 95% less than the values obtained in the untreated control cultures)
- cellular viraemia (p24) (HIV (cellular viraemia); patient SAM + MS, day 14): - (the amount of p24 detected is at least 95% less than the values obtained in the untreated control cultures)
- cellular viraemia (p24) (HIV (cellular viraemia); patient five + MS, day 0): - (the amount of p24 detected is at least 95% less than the values obtained in the untreated control cultures)
- cellular viraemia (p24) (HIV (cellular viraemia); patient five + MS, day 7): - (the amount of p24 detected is at least 95% less than the values obtained in the untreated control cultures)
- cellular viraemia (p24) (HIV (cellular viraemia); patient four + MS, day 0): - (the amount of p24 detected is at least 95% less than the values obtained in the untreated control cultures)
- cellular viraemia (p24) (HIV (cellular viraemia); patient four + MS, day 7): - (the amount of p24 detected is at least 95% less than the values obtained in the untreated control cultures)
- cellular viraemia (p24) (HIV (cellular viraemia); patient four + MS, day 14): - (the amount of p24 detected is at least 95% less than the values obtained in the untreated control cultures)
- cellular viraemia (p24) (HIV (cellular viraemia); patient four + MS, day 21): - (the amount of p24 detected is at least 95% less than the values obtained in the untreated control cultures)
- cellular viraemia (p24) (HIV (cellular viraemia); patient four + MS, day 28): - (the amount of p24 detected is at least 95% less than the values obtained in the untreated control cultures)
- cellular viraemia (p24) (HIV (cellular viraemia); patient one + MS, day 0): - (the amount of p24 detected is at least 95% less than the values obtained in the untreated control cultures)
- cellular viraemia (p24) (HIV (cellular viraemia); patient one + MS, day 7): - (the amount of p24 detected is at least 95% less than the values obtained in the untreated control cultures)
- cellular viraemia (p24) (HIV (cellular viraemia); patient seven + MS, day 0): - (the amount of p24 detected is at least 95% less than the values obtained in the untreated control cultures)
- cellular viraemia (p24) (HIV (cellular viraemia); patient seven + MS, day 14): - (the amount of p24 detected is at least 95% less than the values obtained in the untreated control cultures)
- cellular viraemia (p24) (HIV (cellular viraemia); patient six + MS, day 0): - (the amount of p24 detected is at least 95% less than the values obtained in the untreated control cultures)
- cellular viraemia (p24) (HIV (cellular viraemia); patient six + MS, day 14): - (the amount of p24 detected is at least 95% less than the values obtained in the untreated control cultures)
- cellular viraemia (p24) (HIV (cellular viraemia); patient three + MS, day 0): - (the amount of p24 detected is at least 95% less than the values obtained in the untreated control cultures)
- cellular viraemia (p24) (HIV (cellular viraemia); patient three + MS, day 7): - (the amount of p24 detected is at least 95% less than the values obtained in the untreated control cultures)
- cellular viraemia (p24) (HIV (cellular viraemia); patient three + MS, day 14): - (the amount of p24 detected is at least 95% less than the values obtained in the untreated control cultures)
- cellular viraemia (p24) (HIV (cellular viraemia); patient three + MS, day 21): - (the amount of p24 detected is at least 95% less than the values obtained in the untreated control cultures)
- cellular viraemia (p24) (HIV (cellular viraemia); patient three + MS, day 28): - (the amount of p24 detected is at least 95% less than the values obtained in the untreated control cultures)
- cellular viraemia (p24) (HIV (cellular viraemia); patient two + MS, day 0): - (the amount of p24 detected is at least 95% less than the values obtained in the untreated control cultures)
- cellular viraemia (p24) (HIV (cellular viraemia); patient two + MS, day 7): - (the amount of p24 detected is at least 95% less than the values obtained in the untreated control cultures)
- cellular viraemia (p24) (HIV (cellular viraemia); patient two + MS, day 14): - (the amount of p24 detected is at least 95% less than the values obtained in the untreated control cultures)
- cellular viraemia (p24) (HIV (cellular viraemia); patient two + MS, day 21): - (the amount of p24 detected is at least 95% less than the values obtained in the untreated control cultures)
- cellular viraemia (p24) (HIV (cellular viraemia); patient two + MS, day 28): - (the amount of p24 detected is at least 95% less than the values obtained in the untreated control cultures)
- inhibition at 10 µM (HIV): > 90%
